In one data set the target is CYP3A4 (Homo sapiens (Human), UniProt P08684). Nature of the data set: Human Cytochrome P450 Inhibition Assay (Bactosomes). The format is in vitro ADME. As to conditions: recombinant Bactosomes, 10 minutes. Here is the method:
(§1) The ability of test compounds to inhibit five of the most relevant cytochrome P450 enzymes was measured by determination of the activity of cytochrome P450 enzymes in recombinant cytochrome preparations, called Bactosomes (Cypex Ltd, Dundee, Scotland UK DD2 1 NH), in the presence of a specific probe substrate. Bactosomes are a highly efficient and cost-effective source of recombinant CYP450s which have a higher specific activity of enzyme compared to other sources, such as liver microsomes. […] The following CYP450 isoforms were assayed: CYP1A2, CYP2C9, CYP2C19, CYP2D6 and CYP3A4. The study of CYP450 inhibition potential in Bactosomes is accepted as a valuable model permitting rapid prediction of potential drug-drug interactions in vivo (see, e.g., Weaver et al., 2003).
(§2) Bactosomes were obtained from a commercial source (Cypex, Scotland, UK). Test compounds were incubated with Bactosomes at 6 concentrations. Samples were incubated for 10 minutes, after which the reaction was stopped and the samples analysed by LC-MS/MS Multiple Reaction Monitoring (MRM) for the presence/amount of substrate probe.
(§3) CYP450 enzymes (final protein 75 pmol/mL for CYP1A2; 12.5 pmol/mL for CYP2C19; and 25 pmol/mL for CYP2C9, 2D6 and 3A4), 0.1 M phosphate buffer pH 7.4, probe and test compound (final concentration 50, 15.8, 5, 1.58, 0.5 and 0.158 μM; diluted from 10 mM stock solution to give a final DMSO concentration of 1%) were pre-incubated at 37° C. for 5 minutes. The reaction was initiated by the addition of 20 μL of 10 mM NADPH in phosphate buffer. The final incubation volume was 200 μL. The following control inhibitors were used for each CYP450 inhibition assay: CYP1A2: α-naphthoflavone; CYP2C9: sulfaphenazole; CYP2C19: tranylcypromine; CYP2D6: quinidine; CYP3A4: ketoconazole.
(§4) Each compound was incubated for 10 minutes at 37° C. The reactions were stopped by the addition of methanol (final composition 1:1, aqueous: methanol). The incubation plates were shaken, chilled at […] for 2 hours, and centrifuged at 3500 rpm for 15 minutes at 4° C. to precipitate the protein.

For the next data set, the target named is CYP2D6 (Homo sapiens (Human), UniProt P10635). Described as above. Type of data set: in vitro ADME. As to conditions: recombinant Bactosomes, 10 minutes. The method, then: as §1, §2, §3, §4
CYP2D6, sequence (P10635 whole entry): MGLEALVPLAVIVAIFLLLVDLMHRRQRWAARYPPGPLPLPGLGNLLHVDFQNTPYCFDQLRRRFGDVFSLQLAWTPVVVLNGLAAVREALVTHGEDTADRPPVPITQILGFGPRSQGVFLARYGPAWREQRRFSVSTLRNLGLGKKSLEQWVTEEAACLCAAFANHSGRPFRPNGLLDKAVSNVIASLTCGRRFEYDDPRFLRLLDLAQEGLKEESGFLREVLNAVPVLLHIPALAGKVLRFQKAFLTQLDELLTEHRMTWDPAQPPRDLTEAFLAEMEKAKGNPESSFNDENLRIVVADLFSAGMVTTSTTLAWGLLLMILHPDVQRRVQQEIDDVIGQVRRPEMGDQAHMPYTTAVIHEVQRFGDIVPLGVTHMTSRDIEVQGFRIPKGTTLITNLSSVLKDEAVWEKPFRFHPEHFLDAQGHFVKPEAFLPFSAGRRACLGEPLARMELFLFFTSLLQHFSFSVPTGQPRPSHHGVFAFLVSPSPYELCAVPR
Another data set concerns the target CYP2C9 (Homo sapiens (Human), UniProt P11712). The description is as above. Type of data set: in vitro ADME. As to conditions: recombinant Bactosomes, 10 minutes. The method, then: as §1, §2, §3, §4
The next data set concerns the target CYP1A2 (Homo sapiens (Human), UniProt P05177). The data set is described as above. The format is in vitro ADME. As to conditions: recombinant Bactosomes, 10 minutes; read-out: IC50 CYP1A2. Here is the method: as §1, §2, §3, §4
The target of a further data set is CYP2C19 (Homo sapiens (Human), UniProt P33261). The data set is described as above. The format is in vitro ADME. As to conditions: recombinant Bactosomes, 10 minutes. The method, then:
as §1, §2, §3, §4

Data set [1] has as its system collagen-induced arthritis in DBA/1j mice. Nature of the data set: Mouse Collagen-Induced Arthritis. Type of data set: in vivo. As to conditions: 10 mg/kg/day, once daily for 14 days, oral gavage; arthritic index vs control. Here is the method: Seven- to eight-week-old male DBA/1j mice were used for all procedures. Animals were housed in groups of 10, and were maintained at 21° C.±2° C. on a 12-hour light/dark cycle with food and water ad libitum. Complete Freund's adjuvant (CFA) was prepared by emulsifying bovine type II collagen at 4 mg/mL with a 4 mg/mL suspension of Mycobacterium tuberculosis H37Ra in Incomplete Freund's Adjuvant (IFA) (0.85 mL paraffin oil and 0.15 mL mannide monooleate) in a 1:1 (v/v) ratio. All mice were immunised subcutaneously with 200 μg of bovine type II collagen in CFA. 21 days later, all mice were immunised subcutaneously with 100 μg of bovine type II collagen in IFA. The mice started to develop signs and symptoms of arthritis following the ‘booster’ immunisation.
For macroscopic assessment of arthritis, the following signs were monitored in each paw of each mouse three times per week and summed to generate the Arthritic Index (A1) (the maximum A1 for one animal is 16): • 0=no visible effects of arthritis. • 1=oedema and/or erythema of 1 digit. • 2=oedema and/or erythema of 2 digits. • 3=oedema and/or erythema of more than 2 digits. • 4=severe arthritis of entire paw and digits.
Animals were sorted into treatment groups with a mean arthritic index of 2.5 and then dosed once daily for 14 days with compound: by oral gavage for test compounds, or by subcutaneous injection at a dose of 10 mg/kg for the positive control, etanercept. After completion of the experiment, the mice were sacrificed.
The data were analysed by generating an average of the arthritic index across each treatment group. The mean arthritic index was then compared to the arthritic index of control (untreated) animals using the following formula to generate a percentage inhibition of disease.

The target in the next data set is hERG (Homo sapiens (Human), UniProt Q12809). Nature of the data set: hERG Ion Channel binding assay (3H astemizole displacement). As to conditions: human, membranes of HEK293 cells stably expressing hERG, pH 7.4, probe 3H astemizole (1.5 nM); Tested at 25 μM; displacement of 3H astemizole, hERG-HEK293 membranes. The procedure, abridged: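 Membranes from stably transfected hERG-HEK293 cells incubated with 1.5 nM ³H-astemizole ± test compound in HEPES buffer pH 7.4 (0.1% BSA, 5 mM KCl, 130 mM NaCl) at 25° C for 60 min. Bound ligand measured by filtration and scintillation counting; reported as % displacement (0% none, 100% complete).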
hERG, sequence (Q12809 whole entry): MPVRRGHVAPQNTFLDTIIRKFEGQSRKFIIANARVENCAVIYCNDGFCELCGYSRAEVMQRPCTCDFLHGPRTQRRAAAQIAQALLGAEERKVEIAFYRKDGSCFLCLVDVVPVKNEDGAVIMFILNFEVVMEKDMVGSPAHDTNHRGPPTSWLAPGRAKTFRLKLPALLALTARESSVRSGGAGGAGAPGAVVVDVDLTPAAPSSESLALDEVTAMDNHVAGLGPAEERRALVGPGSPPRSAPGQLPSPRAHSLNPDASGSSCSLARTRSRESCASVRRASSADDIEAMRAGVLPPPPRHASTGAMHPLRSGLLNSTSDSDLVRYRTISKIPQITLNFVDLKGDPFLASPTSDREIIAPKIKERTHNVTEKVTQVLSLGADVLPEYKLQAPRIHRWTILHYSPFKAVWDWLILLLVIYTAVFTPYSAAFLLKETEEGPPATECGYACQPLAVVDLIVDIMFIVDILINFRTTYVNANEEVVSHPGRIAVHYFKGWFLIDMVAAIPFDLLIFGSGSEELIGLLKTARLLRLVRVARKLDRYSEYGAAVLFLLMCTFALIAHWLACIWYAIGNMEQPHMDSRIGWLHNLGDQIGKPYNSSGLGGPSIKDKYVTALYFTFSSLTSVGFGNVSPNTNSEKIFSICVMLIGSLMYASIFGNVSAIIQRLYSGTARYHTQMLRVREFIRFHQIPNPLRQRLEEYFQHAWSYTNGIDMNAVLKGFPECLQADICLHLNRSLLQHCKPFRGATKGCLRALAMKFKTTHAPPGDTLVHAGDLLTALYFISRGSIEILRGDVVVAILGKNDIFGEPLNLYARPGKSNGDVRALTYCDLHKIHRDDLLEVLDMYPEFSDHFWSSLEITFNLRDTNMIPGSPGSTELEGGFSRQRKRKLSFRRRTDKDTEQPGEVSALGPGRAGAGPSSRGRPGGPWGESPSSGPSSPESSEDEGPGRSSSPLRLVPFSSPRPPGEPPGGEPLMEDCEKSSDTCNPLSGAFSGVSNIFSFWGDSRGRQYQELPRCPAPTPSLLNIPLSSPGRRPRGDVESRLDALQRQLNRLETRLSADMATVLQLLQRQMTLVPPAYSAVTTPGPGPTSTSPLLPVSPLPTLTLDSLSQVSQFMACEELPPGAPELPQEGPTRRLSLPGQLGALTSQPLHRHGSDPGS

The results in this text go back to patent US12162836B2, “N-acyl-{4-[(4-aryl-phenyl)sulfonylmethyl]piperidine} compounds and their therapeutic use” (Modern Biosciences Limited, priority 2019, dated 2024).

CYP2C9, sequence (P11712 whole entry): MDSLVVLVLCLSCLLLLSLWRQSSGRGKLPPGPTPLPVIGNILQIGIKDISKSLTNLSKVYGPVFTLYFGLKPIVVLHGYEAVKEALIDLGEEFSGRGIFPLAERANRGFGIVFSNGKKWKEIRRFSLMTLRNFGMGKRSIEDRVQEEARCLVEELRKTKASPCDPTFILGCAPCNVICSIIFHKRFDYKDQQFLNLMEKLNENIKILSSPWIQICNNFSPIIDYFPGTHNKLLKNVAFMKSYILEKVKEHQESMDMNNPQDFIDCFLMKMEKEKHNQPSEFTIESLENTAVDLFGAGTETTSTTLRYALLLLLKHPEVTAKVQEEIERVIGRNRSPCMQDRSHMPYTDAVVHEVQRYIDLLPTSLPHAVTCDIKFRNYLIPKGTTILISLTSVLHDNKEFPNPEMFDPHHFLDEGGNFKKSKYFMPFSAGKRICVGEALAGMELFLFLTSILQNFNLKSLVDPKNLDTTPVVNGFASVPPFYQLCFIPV
CYP2C19, sequence (P33261 whole entry): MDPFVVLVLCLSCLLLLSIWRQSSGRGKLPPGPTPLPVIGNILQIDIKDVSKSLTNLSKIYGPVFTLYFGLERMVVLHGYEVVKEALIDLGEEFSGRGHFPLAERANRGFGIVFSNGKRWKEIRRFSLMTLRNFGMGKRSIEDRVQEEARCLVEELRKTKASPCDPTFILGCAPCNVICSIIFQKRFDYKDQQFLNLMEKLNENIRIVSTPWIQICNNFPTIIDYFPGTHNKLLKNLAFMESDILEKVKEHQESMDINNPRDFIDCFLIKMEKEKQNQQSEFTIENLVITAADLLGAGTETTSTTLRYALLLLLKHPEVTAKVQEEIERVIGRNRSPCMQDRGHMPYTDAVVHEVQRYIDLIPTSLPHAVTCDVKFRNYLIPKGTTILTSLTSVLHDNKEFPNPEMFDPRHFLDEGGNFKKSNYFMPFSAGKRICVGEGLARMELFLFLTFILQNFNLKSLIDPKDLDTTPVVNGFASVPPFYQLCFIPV
CYP3A4, sequence (P08684 whole entry, canonical isoform): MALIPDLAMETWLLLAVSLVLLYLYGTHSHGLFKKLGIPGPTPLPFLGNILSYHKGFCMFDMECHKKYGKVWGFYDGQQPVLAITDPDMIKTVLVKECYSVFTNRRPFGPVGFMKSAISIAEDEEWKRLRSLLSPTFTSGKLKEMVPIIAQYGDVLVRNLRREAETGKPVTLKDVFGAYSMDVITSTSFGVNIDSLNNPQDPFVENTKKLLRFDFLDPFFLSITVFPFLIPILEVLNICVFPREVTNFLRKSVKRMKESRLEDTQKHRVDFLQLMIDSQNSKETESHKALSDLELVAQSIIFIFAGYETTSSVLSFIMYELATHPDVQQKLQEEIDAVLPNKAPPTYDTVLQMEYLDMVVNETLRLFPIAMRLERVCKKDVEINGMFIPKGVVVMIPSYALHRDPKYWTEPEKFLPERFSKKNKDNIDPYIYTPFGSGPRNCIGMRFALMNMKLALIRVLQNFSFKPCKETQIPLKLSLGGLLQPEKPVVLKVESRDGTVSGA
CYP1A2, sequence (P05177 whole entry): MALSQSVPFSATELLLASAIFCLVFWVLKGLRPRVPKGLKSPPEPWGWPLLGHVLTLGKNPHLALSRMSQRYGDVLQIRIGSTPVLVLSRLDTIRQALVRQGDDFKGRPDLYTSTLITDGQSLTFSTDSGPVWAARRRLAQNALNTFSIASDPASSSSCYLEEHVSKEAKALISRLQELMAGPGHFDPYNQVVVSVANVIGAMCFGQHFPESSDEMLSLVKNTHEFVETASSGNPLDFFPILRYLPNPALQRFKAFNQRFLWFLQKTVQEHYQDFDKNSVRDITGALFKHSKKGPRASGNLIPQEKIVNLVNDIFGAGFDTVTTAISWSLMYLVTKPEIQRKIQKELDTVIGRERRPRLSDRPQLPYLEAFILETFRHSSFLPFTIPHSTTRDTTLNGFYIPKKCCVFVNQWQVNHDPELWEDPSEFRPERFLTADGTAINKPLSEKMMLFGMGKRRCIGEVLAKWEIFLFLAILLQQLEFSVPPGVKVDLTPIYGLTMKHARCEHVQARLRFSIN

For `C[C@]1(O)CC[C@H](NS(=O)(=O)c2ccc(-c3ccc(Cl)cc3C#N)cc2)CC1` [HMC-C-01-A, reference compound], the IC50 on CYP3A4 was greater than 25 µM; at CYP2D6, 16.6 µM; at CYP2C9 it was 21 µM; on CYP1A2 it was 25 µM; at CYP2C19, greater than 25 µM. The “% inhibition of disease” value in data set [1] was determined as 40%. The inhibition at 60 min, 25 µM on hERG is 18%.
